Test results taken from PubChem BioAssay AID2060906 (Molecular Pharmacology Branch, DTP, NCI, 2025).

Test system: 485176-168-R4-J1-PDC complex spheroid growth
Experiment: Anticancer human tumor 485176-168-R4-J1-PDC patient-derived pancreatic adenocarcinoma cell line growth inhibition [RAS]
Conditions: for IC50: curve of first compound; for viability, T/C: stronger effect = lower value
In short: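 Tumour cells grown as complex spheroids with HUVEC endothelial cells and mesenchymal stem cells, treated with RAS pathway inhibitor combinations. Each agent spans half-log steps from near clinical Cmax, or 10 microM where Cmax is unknown.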
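Further: spheroids exposed to compounds for seven days before readout.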
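Wherever viability, T/C is given: luminescence viability expressed relative to DMSO vehicle wells set as 100%.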

Question: Which results are given for `NC1c2ccccc2OC12CCN(c1cnc3c(N4CCCc5ncccc54)n[nH]c3n1)CC2` (centres undefined) + C=CC(=O)N1CCN(c2nc(OCC3CCCN3C)nc3c(F)c(-c4nc(N)cc(C)c4C(F)(F)F)c(Cl)cc23)C(C)C1?
Answer: IC50 (second compound 0.00316 µM): > 10 µM; IC50 (second compound 0.01 µM): > 10 µM; IC50 (second compound 0.0316 µM): > 10 µM; IC50 (second compound 0.1 µM): > 10 µM; IC50 (second compound 0.316 µM): > 10 µM; IC50 (second compound 1 µM): > 10 µM; viability, T/C (second compound 0.00316 µM, first compound 0.0316 µM): 81.4%; viability, T/C (second compound 0.00316 µM, first compound 0.1 µM): 77.9%; viability, T/C (second compound 0.00316 µM, first compound 0.316 µM): 71.7%; viability, T/C (second compound 0.00316 µM, first compound 1 µM): 80.1%; viability, T/C (second compound 0.00316 µM, first compound 3.16 µM): 77.2%; viability, T/C (second compound 0.00316 µM, first compound 10 µM): 55.8%; viability, T/C (second compound 0.01 µM, first compound 0.0316 µM): 84.1%; viability, T/C (second compound 0.01 µM, first compound 0.1 µM): 75.3%; viability, T/C (second compound 0.01 µM, first compound 0.316 µM): 87.9%; viability, T/C (second compound 0.01 µM, first compound 1 µM): 70%; viability, T/C (second compound 0.01 µM, first compound 3.16 µM): 79.1%; viability, T/C (second compound 0.01 µM, first compound 10 µM): 62.9%; viability, T/C (second compound 0.0316 µM, first compound 0.0316 µM): 82.9%; viability, T/C (second compound 0.0316 µM, first compound 0.1 µM): 66.2%; viability, T/C (second compound 0.0316 µM, first compound 0.316 µM): 76.7%; viability, T/C (second compound 0.0316 µM, first compound 1 µM): 85.3%; viability, T/C (second compound 0.0316 µM, first compound 3.16 µM): 72.9%; viability, T/C (second compound 0.0316 µM, first compound 10 µM): 59.1%; viability, T/C (second compound 0.1 µM, first compound 0.0316 µM): 91.2%; viability, T/C (second compound 0.1 µM, first compound 0.1 µM): 86.5%; viability, T/C (second compound 0.1 µM, first compound 0.316 µM): 71%; viability, T/C (second compound 0.1 µM, first compound 1 µM): 72.6%; viability, T/C (second compound 0.1 µM, first compound 3.16 µM): 84%; viability, T/C (second compound 0.1 µM, first compound 10 µM): 81.7%; viability, T/C (second compound 0.316 µM, first compound 0.0316 µM): 82.7%; viability, T/C (second compound 0.316 µM, first compound 0.1 µM): 91.5%; viability, T/C (second compound 0.316 µM, first compound 0.316 µM): 82.5%; viability, T/C (second compound 0.316 µM, first compound 1 µM): 91.5%; viability, T/C (second compound 0.316 µM, first compound 3.16 µM): 80.2%; viability, T/C (second compound 0.316 µM, first compound 10 µM): 61%; viability, T/C (second compound 1 µM, first compound 0.0316 µM): 91.5%; viability, T/C (second compound 1 µM, first compound 0.1 µM): 68.8%; viability, T/C (second compound 1 µM, first compound 0.316 µM): 69.5%; viability, T/C (second compound 1 µM, first compound 1 µM): 72.1%; viability, T/C (second compound 1 µM, first compound 3.16 µM): 74%; viability, T/C (second compound 1 µM, first compound 10 µM): 66.2%

Question: How did the IC50 (second compound 0.000949 µM) turn out when `CCc1c2c(nc3ccc(O)cc13)-c1cc3c(c(=O)n1C2)COC(=O)[C@]3(O)CC` + CCn1c(-c2cc(N3CCN(C)CC3)cnc2C(C)OC)c2c3cc(ccc31)-c1csc(n1)CC(NC(=O)C1CC1C)C(=O)N1CCCC(N1)C(=O)OCC(C)(C)C2 was run?
Answer: 0.0139 µM

Question: And the IC50 (second compound 0.003 µM)?
Answer: 0.0124 µM

Question: And the IC50 (second compound 0.00949 µM)?
Answer: 0.0116 µM

Question: And the IC50 (second compound 0.03 µM)?
Answer: 0.0112 µM

Question: What about the IC50 (second compound 0.0949 µM) of the same molecule?
Answer: 0.0103 µM

Question: And the IC50 (second compound 0.3 µM)?
Answer: 0.00716 µM

Question: And the viability, T/C (second compound 0.000949 µM, first compound 0.000949 µM)?
Answer: 104%

Question: And the viability, T/C (second compound 0.000949 µM, first compound 0.003 µM)?
Answer: 77.5%

Question: What about the viability, T/C (second compound 0.000949 µM, first compound 0.00949 µM) of the same molecule?
Answer: 64.3%

Question: And the viability, T/C (second compound 0.000949 µM, first compound 0.03 µM)?
Answer: 30.8%

Question: And the viability, T/C (second compound 0.000949 µM, first compound 0.0949 µM)?
Answer: 16.6%

Question: And the viability, T/C (second compound 0.000949 µM, first compound 0.3 µM)?
Answer: 9.25%

Question: What about the viability, T/C (second compound 0.003 µM, first compound 0.000949 µM) of the same molecule?
Answer: 95%

Question: And the viability, T/C (second compound 0.003 µM, first compound 0.003 µM)?
Answer: 86%

Question: And the viability, T/C (second compound 0.003 µM, first compound 0.00949 µM)?
Answer: 55.6%

Question: What about the viability, T/C (second compound 0.003 µM, first compound 0.03 µM) of the same molecule?
Answer: 27.8%

Question: What about the viability, T/C (second compound 0.003 µM, first compound 0.0949 µM) of the same molecule?
Answer: 16.1%

Question: What about the viability, T/C (second compound 0.003 µM, first compound 0.3 µM) of the same molecule?
Answer: 9.83%

Question: What about the viability, T/C (second compound 0.00949 µM, first compound 0.000949 µM) of the same molecule?
Answer: 81.2%

Question: What about the viability, T/C (second compound 0.00949 µM, first compound 0.003 µM) of the same molecule?
Answer: 77.8%

Question: And the viability, T/C (second compound 0.00949 µM, first compound 0.00949 µM)?
Answer: 50.3%

Question: And the viability, T/C (second compound 0.00949 µM, first compound 0.03 µM)?
Answer: 32.4%

Question: And the viability, T/C (second compound 0.00949 µM, first compound 0.0949 µM)?
Answer: 16.2%

Question: And the viability, T/C (second compound 0.00949 µM, first compound 0.3 µM)?
Answer: 7.59%

Question: And the viability, T/C (second compound 0.03 µM, first compound 0.000949 µM)?
Answer: 70.7%

Question: And the viability, T/C (second compound 0.03 µM, first compound 0.003 µM)?
Answer: 72.3%

Question: What about the viability, T/C (second compound 0.03 µM, first compound 0.00949 µM) of the same molecule?
Answer: 52.3%

Question: What about the viability, T/C (second compound 0.03 µM, first compound 0.03 µM) of the same molecule?
Answer: 28.3%

Question: And the viability, T/C (second compound 0.03 µM, first compound 0.0949 µM)?
Answer: 15.9%

Question: What about the viability, T/C (second compound 0.03 µM, first compound 0.3 µM) of the same molecule?
Answer: 12%

Question: And the viability, T/C (second compound 0.0949 µM, first compound 0.000949 µM)?
Answer: 70.1%

Question: What about the viability, T/C (second compound 0.0949 µM, first compound 0.003 µM) of the same molecule?
Answer: 76.8%

Question: And the viability, T/C (second compound 0.0949 µM, first compound 0.00949 µM)?
Answer: 45.2%

Question: What about the viability, T/C (second compound 0.0949 µM, first compound 0.03 µM) of the same molecule?
Answer: 32.5%

Question: What about the viability, T/C (second compound 0.0949 µM, first compound 0.0949 µM) of the same molecule?
Answer: 17%

Question: And the viability, T/C (second compound 0.0949 µM, first compound 0.3 µM)?
Answer: 9.84%

Question: What about the viability, T/C (second compound 0.3 µM, first compound 0.000949 µM) of the same molecule?
Answer: 78.3%

Question: And the viability, T/C (second compound 0.3 µM, first compound 0.003 µM)?
Answer: 62.1%

Question: What about the viability, T/C (second compound 0.3 µM, first compound 0.00949 µM) of the same molecule?
Answer: 47.3%

Question: What about the viability, T/C (second compound 0.3 µM, first compound 0.03 µM) of the same molecule?
Answer: 27.6%

Question: What about the viability, T/C (second compound 0.3 µM, first compound 0.0949 µM) of the same molecule?
Answer: 15.2%

Question: What about the viability, T/C (second compound 0.3 µM, first compound 0.3 µM) of the same molecule?
Answer: 6.04%
